According to PubChem BioAssay (NCI):
“And” between values parts separate entries of the source, which are not always exact repeats. Equal values may be shown once.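 These data come from cells grown in 96-well plates and exposed to compound for 48 hours at five concentrations. Abbreviation: GI50, concentration required for 50% inhibition of growth. TGI: concentration producing complete growth inhibition.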

Key:
Assay in all cases: inhibition of tumour cell growth, NCI panel, 48 h
SK-OV-3 ovarian = test system: SK-OV-3 ovarian
SF-268 CNS = test system: SF-268 CNS
M14 melanoma = test system: M14 melanoma
OVCAR-5 ovarian = test system: OVCAR-5 ovarian
SW-620 colon = test system: SW-620 colon
NCI-H226 lung = test system: NCI-H226 lung
SN12C renal = test system: SN12C renal
COLO 205 colon = test system: COLO 205 colon
IGROV1 ovarian = test system: IGROV1 ovarian
UO-31 renal = test system: UO-31 renal

Row | SMILES | TGI (SK-OV-3 ovarian) [µM] | TGI (SF-268 CNS) [µM] | TGI (M14 melanoma) [µM] | TGI (OVCAR-5 ovarian) | TGI (SW-620 colon) [µM] | TGI (NCI-H226 lung) [µM] | TGI (SN12C renal) [µM] | TGI (COLO 205 colon) [µM] | TGI (IGROV1 ovarian) [µM] | TGI (UO-31 renal) | GI50 (NCI-H226 lung) [µM]
1 | CC1(C)CCC2(C(=O)OC3OC(CO)C(O)C(O)C3O)CCC3(C)C(=CCC4C5(C)CCC(OC6OC(CO)C(O)C(O)C6O)C(C)(C)C5CCC43C)C2C1 (stereo not drawn) | > 25 | 21.8 | > 25 | > 25 µM | > 25 | > 25 | > 25 | > 25 | > 25 | > 25 µM | 
2 | N[C@H]1CCN(c2c(F)cc3c(=O)c(C(=O)O)cn4c3c2Oc2cc3c(ccc5ccccc53)cc2-4)C1 | > 100 |  | > 100 | > 100 µM | > 100 | 58.5 | > 100 | 9.28 | > 100 | > 100 µM | 
3 | COc1ccc(N=c2ssc(C(=S)Nc3ccc(OC)cc3)c2S)cc1 | > 100 | > 100 | > 100 | > 100 µM | > 100 | > 100 | > 100 | > 100 | > 100 | > 100 µM | 
4 | Nc1ccc2c(c1)C(=O)N(O)C2=O | > 100 | > 100 | > 100 | > 100 µM | > 100 | > 100 | > 100 |  | > 100 | > 100 µM | 
5 | CC1=C2C(=O)OCC23C=COC3(C)O1 (stereo not drawn) | > 100 | > 100 | 85.5 | > 100 µM | > 100 | 97.8 | > 100 | 47.7 | > 100 | > 100 µM | 
6 | N#CC(c1ccccc1)N1CCCN(C(C#N)c2ccccc2)C1c1ccccc1O (stereo not drawn) | > 100 | > 100 | > 100 | > 100 µM | > 100 | > 100 | > 100 | > 100 | > 100 | > 100 µM | 
7 | CCOC(=O)/C(=C\NCC(OCC)OCC)c1nc2ccccc2[nH]1 | > 100 | > 100 | > 100 | > 100 µM | > 100 | > 100 | > 100 | 39.6 | > 100 | > 100 µM | 
8 | CN(C)CCn1c(=O)c2ccc3c4c(nn3CCN(C)C)c3cc(N)ccc3n(c1=O)c24 | 0.621 | 0.221 | 0.18 | 0.111 µM | 1.87 | 0.759 | 0.069 | 0.199 | 4.45 | 0.0501 µM | 
9 | COc1ccc(/C=C(\C#N)c2nc(N)nc(N3N=C(C)CC3(C)C)n2)c(O)c1 | 65.1 | 38.3 | 35.6 | 34.2 µM |  | 35.9 | > 100 | 30.9 | 56.4 | 36 µM | 
10 | O=CN1CCN(C(=O)c2cc(Cl)cc(Cl)c2)C1=S | 32.4 | 30.6 | 29.2 | 44.2 µM | 49.3 | 32.7 | 31 | 33.8 | 34.7 |  | 
11 | CC(=O)OC1CC(O)CC2=CCC3C4CCC(C(C)(O)C(O)CC5COC(=O)C5C)C4(C)CCC3C21C (stereo not drawn) | > 25 | > 25 | > 25 | > 25 µM | > 25 | > 25 | > 25 | > 25 | > 25 | > 25 µM | 
12 | O=S1(=O)OC(c2ccc(O)cc2)(c2ccc(O)cc2)c2ccccc21 | > 100 | > 100 | > 100 | > 100 µM | > 100 | > 100 | > 100 | > 100 | > 100 | > 100 µM | 
13 | [O-][N+](CCO)(CCO)c1ncnc2nc[nH]c12 | > 100 | > 100 | > 100 | > 100 µM | > 100 | > 100 | > 100 | > 100 | > 100 | > 100 µM | 
14 | O=[n+]1c2c(n([O-])c3ccccc31)-c1cccc3cccc-2c13 |  | > 100 | > 100 |  | > 100 | > 100 | > 100 | > 100 |  | > 100 µM | 
15 | CC[C@@]1(O)C(=O)OCc2c1cc1n(c2=O)Cc2c-1nc1ccc(O)cc1c2CC[Si](C)(C)C |  |  | 0.0151 | 0.267 µM and 0.375 µM | > 100 |  |  | 1.16 | 0.202 | 0.123 µM and 0.0795 µM | < 0.001
16 | COc1ccc(N=C2C(=O)C3=C(OC(C)(C)CC3)c3ccccc32)cc1 | 4.4 | 10.7 | 1.5 | 6.14 µM | 1.56 | 20.4 | 1.63 | 5.8 | 11.2 | 1.69 µM | 
17 | CCOC(=O)C1CCn2c(nc3c2c(=O)n(C)c(=O)n3C)S1 (stereo not drawn) | > 100 | > 100 | > 100 | > 100 µM | > 100 | > 100 | > 100 |  | > 100 |  | 
18 | Nc1nc(N)c2c(n1)NC(c1ccccc1)CC(/C=C/c1ccc(Cl)cc1)=N2 (stereo not drawn) | 29.4 | 44.1 | 28.3 | 32.5 µM | 26.8 | 27.7 | 23.6 | 7.5 | 7.67 | 23.4 µM | 
19 | Cc1cc(O)c(C(C)C)cc1CN1CCCCC1 | > 100 | > 100 | > 100 | > 100 µM | > 100 | > 100 | > 100 | > 100 | > 100 | > 100 µM | 
20 | COC(=O)C1C(O)CCC2CN3CCc4c([nH]c5cccc(OC)c45)C3CC21 (stereo not drawn) | > 100 | > 100 | > 100 | > 100 µM | > 100 | > 100 | > 100 | > 100 | > 100 | > 100 µM | 
21 | COc1c2c(cc3c1C(O)N1CC[C@]34[C@H]3O[C@H]3[C@H](OC)C[C@@H]14)OCO2 (stereo partly drawn) | 97.1 | > 100 | > 100 | > 100 µM | > 100 | > 100 | > 100 | > 100 | > 100 | > 100 µM | 
